Experiments:
[1] = Hygroscopicity test (isothermal water vapor adsorption, DVS); format: physicochemical; settings: at 95% RH, 25° C., relative to weight equilibrium value at 0% RH
Experimental: Isothermal adsorption measurement of the I type crystal and the II type crystal of the compound represented by formula (1) was performed, using a water vapor adsorption measurement instrument (available from Surface Measurement Systems Ltd., DVS ADVANTAGE 1) (with a sample of about 10 mg, at 25° C., at from 0% RH through 95% RH). As the result of evaluation of hygroscopicity, a weight increase rate at 95% RH (weight increase from initial value/initial value×100, *initial value: weight equilibrium value at 0% RH) is presented in Table 2.

[2] = Stability test (storage of crystals, chemical purity by HPLC); format: physicochemical; settings: for chemical stability (in words): thermal stability test, photostability test, accelerated stability test
Experimental: The I type crystal and the II type crystal of the compound represented by formula (1) were put in glass bottles (in about 300 mg each) and stored under various conditions. After the storage period, the chemical purity of the samples taken out was measured by HPLC. The conditions of each test were as follows.
Thermal stability test: 60° C., hermetically sealed, a period of 3 weeks
Photostability test: 25° C., 1.2 million lux hours (2,000 lux, for 25 days)
Accelerated stability test (hermetically sealed): 40° C., 75% RH*, a period of 1 month
Accelerated stability test (opened): 40° C., 75% RH*, a period of 1 month
As the result of evaluation of each stability, the amount of the compound represented by formula (1) contained in the crystal is presented in Table 1 as a residual ratio (a HPLC area percentage ratio to the initial value, expressed in percentage).

PDE4 = assay: Evaluation of PDE4 inhibition (Scintillation Proximity Assay); format: biochemical; settings: SPA, [3H]-cAMP, room temperature 120 minutes; read-out: PDE4 inhibiting activity (the concentration at an inhibition rate of 50%)
Experimental: The PDE4 inhibiting activity was measured in the following manner, employing Scintillation Proximity Assay (SPA). The specimen compound dissolved in dimethyl sulfoxide and diluted 10 fold with a buffer solution for reaction containing 50 mM Tris-HCl (pH of 7.4), 8.3 mMMgCl2, 1.7 mM EGTA, and 3 mg/mL bovine serum albumin (BSA) was added in 10 microliters in a 96-well assay plate. After PDE4 diluted 375 fold with the buffer solution for reaction was further added in 50 microliters, a [2,8-^3H]-Adenosine-3′,5′-cyclic phosphate triethylammonium salt diluted 1,000 fold with the buffer solution for reaction was added in 40 microliters, and the resultant was left to stand still at room temperature for 120 minutes. […] Subsequently, radioactivity was measured with a liquid scintillation counter for a 96-well plate. The inhibition rate of the compound represented by formula (1) to a control was calculated according to the following calculation formula, where the blank was prepared as the buffer solution for reaction only, with no enzyme preparation, and the control was prepared with the enzyme preparation and with only dimethyl sulfoxide instead of the specimen solution. […]

[3] = Accelerated stability test (hermetically sealed): 40° C., 75% RH, 1 month
[4] = Accelerated stability test (opened): 40° C., 75% RH, 1 month
[5] = Photostability test: 25° C., 1.2 million lux hours (2,000 lux, 25 days)
[6] = Thermal stability test: 60° C., hermetically sealed, 3 weeks

| Structure (SMILES) | Weight increase rate (%) [1] | Residual ratio (%) of compound represented by formula (1) [2, 3] | Residual ratio (%) of compound represented by formula (1) [2, 4] | Residual ratio (%) of compound represented by formula (1) ([2]; Initial value) | Residual ratio (%) of compound represented by formula (1) [2, 5] | Residual ratio (%) of compound represented by formula (1) [2, 6] | chemical stability (in words) [2] | IC50 (PDE4) |
| --- | --- | --- | --- | --- | --- | --- | --- | --- |
| CC(C)(O)C(F)(F)Oc1ccc(-c2nccs2)c2oc(N3CC4CC(C3)N4)nc12 [I type crystal, 1-((2-(3,6-diazabicyclo[3.1.1]heptan-3-yl)-7-(thiazol-2-yl)benzo[d]oxazol-4-yl)oxy)-1,1-difluoro-2-methylpropan-2-ol] | 0.6% | 100.1% | 100.1% | 100.0% | 100.1% | 99.8% | sufficient chemical stability | – |
| CC(C)(O)C(F)(F)Oc1ccc(-c2nccs2)c2oc(N3CC4CC(C3)N4)nc12 [II type crystal, 1-((2-(3,6-diazabicyclo[3.1.1]heptan-3-yl)-7-(thiazol-2-yl)benzo[d]oxazol-4-yl)oxy)-1,1-difluoro-2-methylpropan-2-ol] | 10.7% | 100.1% | 100.0% | 100.0% | 99.5% | 100.0% | sufficient chemical stability | – |
| CC(C)(O)C(F)(F)Oc1ccc(-c2nccs2)c2oc(N3CC4CC(C3)N4)nc12 [compound represented by formula (1), 1-((2-(3,6-diazabicyclo[3.1.1]heptan-3-yl)-7-(thiazol-2-yl)benzo[d]oxazol-4-yl)oxy)-1,1-difluoro-2-methylpropan-2-ol] | – | – | – | – | – | – | – | < 100 nM |

From patent US11512091B2, “Crystal of benzoxazole derivative” (MEIJI SEIKA PHARMA CO., LTD., priority 2018, dated 2022)
